Structures are written as SMILES.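 96-well plates; 48 h exposure; 5 concentrations. Endpoints by linear interpolation between flanking doses. Not reached: highest tested concentration assigned. GI50: concentration for 50% inhibition of growth. TGI is the concentration that stops growth completely.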

Some test systems named below: A549 NSCLC; UO-31 renal; SK-MEL-5 melanoma; OVCAR-3 ovarian; MOLT-4 leukemia; SK-MEL-28 melanoma; NCI-H460 lung; NCI-H226 lung; SK-OV-3 ovarian; A498 renal.
Test in all cases: NCI anticancer screen, dose series, 48 h

Turning to `CCN1CCC(C(=O)Nc2n[nH]c3nnc(-c4cccc(F)c4F)cc23)CC1`, the GI50 in the experiment with A549 NSCLC was 10.5 µM; in the experiment with UO-31 renal, greater than 25 µM; with SK-MEL-5 melanoma it was 1.62 µM; in the experiment on OVCAR-3 ovarian, 2.78 µM; in the experiment with MOLT-4 leukemia, 12.1 µM; in the experiment with SK-MEL-28 melanoma it was 8.35 µM. In addition, the GI50 was 7.96 µM with NCI-H460 lung, 3.41 µM with NCI-H226 lung, 2.33 µM with SK-OV-3 ovarian and 0.543 µM in the experiment on A498 renal. Also, the TGI with A549 NSCLC was greater than 25 µM; with UO-31 renal, greater than 25 µM; in the experiment with SK-MEL-5 melanoma, 7.46 µM; in the experiment with OVCAR-3 ovarian it was greater than 14.2 µM; in the experiment with MOLT-4 leukemia, greater than 25 µM; in the experiment on SK-MEL-28 melanoma, greater than 18.4 µM. Further, the TGI in the experiment on NCI-H460 lung is greater than 25 µM; in the experiment with NCI-H226 lung, 11.9 µM; in the experiment with SK-OV-3 ovarian it was 23.4 µM; with A498 renal, greater than 6.6 µM.

With `COc1ccc(NC(=O)CC/C(CC(=O)c2ccco2)=N/Nc2ccc([N+](=O)[O-])cc2[N+](=O)[O-])cc1`, the TGI in the experiment on A549 NSCLC is greater than 100 µM; with UO-31 renal, greater than 100 µM; in the experiment on SK-MEL-5 melanoma, greater than 100 µM; in the experiment on OVCAR-3 ovarian it was greater than 100 µM; in the experiment on MOLT-4 leukemia, 97.3 µM; in the experiment on SK-MEL-28 melanoma, greater than 100 µM. Further, the TGI with NCI-H460 lung, with NCI-H226 lung, with SK-OV-3 ovarian and in the experiment with A498 renal was greater than 100 µM in each case.

`O=c1c(Cl)nsnc1Cl`: the TGI in the experiment on A549 NSCLC is 65.4 µM; in the experiment with UO-31 renal it was 74.5 µM; with SK-MEL-5 melanoma it was 32.8 µM; in the experiment on OVCAR-3 ovarian, 17.1 µM; in the experiment on MOLT-4 leukemia it was 4.09 µM; in the experiment with SK-MEL-28 melanoma, 35.1 µM. For the same molecule, the TGI is greater than 73.1 µM in the experiment on NCI-H460 lung, 53.2 µM with NCI-H226 lung, 35 µM in the experiment on SK-OV-3 ovarian and 28.8 µM with A498 renal.

Turning to `COc1c(O)c2ccccc2c2cc(O)ccc12`, the TGI in the experiment on A549 NSCLC came to 23.9 µM; with UO-31 renal, 11.4 µM; with SK-MEL-5 melanoma, 5.59 µM; with OVCAR-3 ovarian, 19.2 µM; in the experiment with MOLT-4 leukemia it was 77.4 µM; in the experiment on SK-MEL-28 melanoma, 11.9 µM. The TGI with NCI-H460 lung was determined as 23.3 µM; in the experiment on NCI-H226 lung, 31.6 µM; in the experiment with SK-OV-3 ovarian, 55 µM; in the experiment on A498 renal, 24.1 µM.

As for `CCN(CC)CCn1c(=N)n(CC(O)c2ccc(Cl)c(Cl)c2)c2ccccc21` (stereo not given), the GI50 with UO-31 renal was 6.97 µM; in the experiment with SK-MEL-5 melanoma, 1.73 µM; in the experiment with OVCAR-3 ovarian it was 11.5 µM; in the experiment on MOLT-4 leukemia, 3.1 µM; with SK-MEL-28 melanoma, 2.05 µM; with NCI-H460 lung it was 4.97 µM. In addition, the GI50 is 17 µM in the experiment with NCI-H226 lung, 11.9 µM in the experiment on SK-OV-3 ovarian and 3.07 µM in the experiment on A498 renal. Moreover, the TGI with UO-31 renal was determined as 20.4 µM; in the experiment on SK-MEL-5 melanoma it was 3.15 µM; in the experiment with OVCAR-3 ovarian, 24 µM; in the experiment with MOLT-4 leukemia it was 13.1 µM; in the experiment with SK-MEL-28 melanoma, 4.34 µM; in the experiment with NCI-H460 lung, 17.9 µM. In addition, the TGI with NCI-H226 lung is 36.9 µM; in the experiment on SK-OV-3 ovarian, 24.1 µM; with A498 renal, 15.6 µM.

For the molecule `O=C(Cn1ccnc1[N+](=O)[O-])NCCO`, the TGI with A549 NSCLC, in the experiment with UO-31 renal, in the experiment on SK-MEL-5 melanoma, in the experiment on OVCAR-3 ovarian, in the experiment on SK-MEL-28 melanoma and in the experiment with NCI-H460 lung was greater than 100 µM each time. The TGI in the experiment on NCI-H226 lung, in the experiment with SK-OV-3 ovarian and in the experiment on A498 renal was greater than 100 µM throughout.

With `COC(=O)C(=O)C(C#N)c1cccc2ccccc12` (stereo not given), the TGI in the experiment on A549 NSCLC, with UO-31 renal, in the experiment on SK-MEL-5 melanoma, with OVCAR-3 ovarian, in the experiment with MOLT-4 leukemia and with SK-MEL-28 melanoma was greater than 100 µM in each case. The TGI in the experiment with NCI-H226 lung, in the experiment on SK-OV-3 ovarian and in the experiment with A498 renal was greater than 100 µM each time.

For `Cc1cc2c(-c3nc4ccccc4[nH]3)c(O)c(O)cc2c(O)c1-c1c(C)cc2c(-c3nc4ccccc4[nH]3)c(O)c(O)cc2c1O`, the GI50 with A549 NSCLC is 0.0117 µM; in the experiment on UO-31 renal, 0.042 µM; with OVCAR-3 ovarian, 0.0411 µM; in the experiment on MOLT-4 leukemia, 0.019 µM; in the experiment on SK-MEL-28 melanoma, 0.0976 µM; with NCI-H460 lung, 0.00751 µM. Also, the GI50 in the experiment with NCI-H226 lung is 0.0563 µM; with SK-OV-3 ovarian it was 0.045 µM; in the experiment with A498 renal it was 0.00875 µM. For the same molecule, the TGI in the experiment with A549 NSCLC was 9.66 µM; in the experiment with UO-31 renal, 0.218 µM; with OVCAR-3 ovarian it was 15.1 µM; in the experiment with MOLT-4 leukemia, greater than 50 µM; in the experiment on SK-MEL-28 melanoma, 15.8 µM; in the experiment on NCI-H460 lung, 0.112 µM. In addition, the TGI in the experiment on NCI-H226 lung was found to be 0.827 µM; with SK-OV-3 ovarian, 0.283 µM; in the experiment on A498 renal it was 0.0374 µM.

Consider `Clc1ccc(Cl)c(N/N=C\c2c[nH]c3ccccc23)c1`, for which the GI50 in the experiment with A549 NSCLC was 14.1 µM; in the experiment on UO-31 renal, 3.7 µM; with SK-MEL-5 melanoma it was 10 µM; with OVCAR-3 ovarian, 11.4 µM; with MOLT-4 leukemia, 0.293 µM; in the experiment with NCI-H460 lung, greater than 100 µM. Also, the GI50 in the experiment with NCI-H226 lung was 7.99 µM; in the experiment with SK-OV-3 ovarian it was 12.8 µM; in the experiment on A498 renal, 14.5 µM. For the same molecule, the TGI in the experiment with A549 NSCLC is 29.4 µM; with UO-31 renal, 18.4 µM; in the experiment with SK-MEL-5 melanoma, 23.1 µM; with OVCAR-3 ovarian, 26.1 µM; with MOLT-4 leukemia it was 11.8 µM; in the experiment on NCI-H460 lung, greater than 100 µM. Moreover, the TGI in the experiment on NCI-H226 lung is 34.3 µM; in the experiment on SK-OV-3 ovarian, 27.2 µM; in the experiment on A498 renal, 29.6 µM.

In the case of `COc1cc([C@@H]2c3cc4c(cc3[C@H](OC3OC5COC(c6ccccc6)OC5C(O)C3O)[C@H]3COC(=O)[C@H]23)OCO4)cc(OC)c1OC` (stereo not given in full), the GI50 is 0.344 µM in the experiment with A549 NSCLC; 0.366 µM in the experiment with UO-31 renal; 0.242 µM in the experiment on SK-MEL-5 melanoma; 0.282 µM in the experiment with OVCAR-3 ovarian; 0.71 µM with SK-MEL-28 melanoma; 0.282 µM in the experiment with NCI-H460 lung. Moreover, the GI50 was 4.58 µM with NCI-H226 lung, 0.441 µM in the experiment with SK-OV-3 ovarian and 0.364 µM in the experiment with A498 renal. Also, the TGI in the experiment on A549 NSCLC amounted to 5.68 µM; with UO-31 renal it was 3.85 µM; in the experiment with SK-MEL-5 melanoma, 0.715 µM; in the experiment on OVCAR-3 ovarian it was 0.711 µM; in the experiment on SK-MEL-28 melanoma, 3.06 µM; in the experiment on NCI-H460 lung it was 2.92 µM. Besides, the TGI with NCI-H226 lung was 37.6 µM; in the experiment on SK-OV-3 ovarian, 18.5 µM; in the experiment on A498 renal it was 3.4 µM.

The record behind these values is PubChem BioAssay (NCI).
